Measurements published in the supplement of paper PMC13380429.

Experiments:
Caco-2 [1] = test: drug sensitivity score (DSS) for viability; higher = more toxic; extreme values may be limits of the assay; conditions: 72 h
HepG2 [2] = test: as above; conditions: 72 h
Vero E6 [3] = test: as above; conditions: 72 h
U2OS [4] = test: as above; conditions: 72 h
Calu-3 [5] = test: as above; conditions: 72 h
A549-ACE2 = test: drug-induced phospholipidosis relative to tamoxifen; higher = more phospholipidosis
Vero E6 [6] = test: relative viability EC50 (midpoint between 100% and the lowest measured viability); higher = less toxic; conditions: 72 h
Calu-3 [7] = test: as above; conditions: 72 h
[8] = tested on: A549-ACE2 infected with SARS-CoV-2; test: morphology score (similarity to uninfected cells); higher = more like uninfected cells; conditions: 24 h
[9] = tested on: A549-ACE2 infected with SARS-CoV-2; test: SARS-CoV-2 infection rate relative to DMSO; higher = more infection; conditions: 24 h
[10] = tested on: A549-ACE2 infected with SARS-CoV-2; test: cell count relative to DMSO; higher = less toxic; conditions: 24 h
Caco-2 [11] = test: cell viability relative to DMSO; higher = less toxic; conditions: 72 h
HepG2 [12] = test: as above; conditions: 72 h
Vero E6 [13] = test: as above; conditions: 72 h
U2OS [14] = test: as above; conditions: 72 h
Calu-3 [15] = test: as above; conditions: 72 h
Caco-2 [16] = test: relative viability EC50 (midpoint between 100% and the lowest measured viability); higher = less toxic; conditions: 72 h
HepG2 [17] = test: as above; conditions: 72 h

Compound: CNC(=O)c1ccccc1Sc1ccc2c(/C=C/c3ccccn3)n[nH]c2c1 [axitinib]
- drug sensitivity score (Caco-2 [1]): 1.5
- drug sensitivity score (HepG2 [2]): 2.3
- drug sensitivity score (Vero E6 [3]): 0
- drug sensitivity score (U2OS [4]): 0.8
- drug sensitivity score (Calu-3 [5]): 1.7
- drug-induced phospholipidosis (A549-ACE2; 0.3 µM, 24 h): 2.86%
- drug-induced phospholipidosis (A549-ACE2; 0.3 µM, 48 h): 1.43%
- drug-induced phospholipidosis (A549-ACE2; 0.3 µM, 72 h): 4.56%
- drug-induced phospholipidosis (A549-ACE2; 0.833333 µM, 24 h): 4.48%
- drug-induced phospholipidosis (A549-ACE2; 0.833333 µM, 48 h): 3.96%
- drug-induced phospholipidosis (A549-ACE2; 0.833333 µM, 72 h): 4.58%
- drug-induced phospholipidosis (A549-ACE2; 3.33333 µM, 24 h): 16.8%
- drug-induced phospholipidosis (A549-ACE2; 3.33333 µM, 48 h): 7.83%
- drug-induced phospholipidosis (A549-ACE2; 6.66667 µM, 24 h): 10.3%
- drug-induced phospholipidosis (A549-ACE2; 6.66667 µM, 48 h): 7.9%
- drug-induced phospholipidosis (A549-ACE2; 10 µM, 24 h): 7.44%
- drug-induced phospholipidosis (A549-ACE2; 10 µM, 48 h): 8.63%
- drug-induced phospholipidosis (A549-ACE2; 30 µM, 24 h): 17.1%
- drug-induced phospholipidosis (A549-ACE2; 30 µM, 48 h): 15.9%
- relative viability EC50 (Vero E6 [6]): > 10 µM
- relative viability EC50 (Calu-3 [7]): > 10 µM
- morphology score ([8]; 0.3 µM): 0.34
- morphology score ([8]; 3 µM): 0.32
- morphology score ([8]; 10 µM): 0.35
- morphology score ([8]; 30 µM): 0.49
- SARS-CoV-2 infection rate ([9]; 0.3 µM): 92%
- SARS-CoV-2 infection rate ([9]; 3 µM): 98%
- SARS-CoV-2 infection rate ([9]; 10 µM): 96%
- SARS-CoV-2 infection rate ([9]; 30 µM): 91%
- cell count ([10]; 0.3 µM): 105%
- cell count ([10]; 3 µM): 75%
- cell count ([10]; 10 µM): 77%
- cell count ([10]; 30 µM): 68%
- cell viability (Caco-2 [11]; 1 nM): 97.2%
- cell viability (Caco-2 [11]; 10 nM): 108%
- cell viability (Caco-2 [11]; 100 nM): 92%
- cell viability (Caco-2 [11]; 1000 nM): 97.8%
- cell viability (Caco-2 [11]; 10000 nM): 72.5%
- cell viability (HepG2 [12]; 1 nM): 111%
- cell viability (HepG2 [12]; 10 nM): 97.7%
- cell viability (HepG2 [12]; 100 nM): 108%
- cell viability (HepG2 [12]; 1000 nM): 92.2%
- cell viability (HepG2 [12]; 10000 nM): 71.8%
- cell viability (Vero E6 [13]; 1 nM): 114%
- cell viability (Vero E6 [13]; 10 nM): 106%
- cell viability (Vero E6 [13]; 100 nM): 108%
- cell viability (Vero E6 [13]; 1000 nM): 101%
- cell viability (Vero E6 [13]; 10000 nM): 94.2%
- cell viability (U2OS [14]; 1 nM): 102%
- cell viability (U2OS [14]; 10 nM): 104%
- cell viability (U2OS [14]; 100 nM): 103%
- cell viability (U2OS [14]; 1000 nM): 105%
- cell viability (U2OS [14]; 10000 nM): 74%
- cell viability (Calu-3 [15]; 1 nM): 108%
- cell viability (Calu-3 [15]; 10 nM): 102%
- cell viability (Calu-3 [15]; 100 nM): 93.6%
- cell viability (Calu-3 [15]; 1000 nM): 86.7%
- cell viability (Calu-3 [15]; 10000 nM): 81%

Compound: CCN1CCC(n2cc(CNc3cc(Cl)c4ncc(C#N)c(Nc5ccc(F)c(Cl)c5)c4c3)nn2)CC1 [cot-inhibitor-2]
- drug sensitivity score (Caco-2 [1]): 3.7
- drug sensitivity score (HepG2 [2]): 3
- drug sensitivity score (Vero E6 [3]): 0.5
- drug sensitivity score (U2OS [4]): 2.7
- drug sensitivity score (Calu-3 [5]): 0.3
- drug-induced phospholipidosis (A549-ACE2; 0.3 µM, 24 h): -0.44%
- drug-induced phospholipidosis (A549-ACE2; 0.3 µM, 48 h): -2.64%
- drug-induced phospholipidosis (A549-ACE2; 0.3 µM, 72 h): 1.59%
- drug-induced phospholipidosis (A549-ACE2; 0.833333 µM, 24 h): -4.12%
- drug-induced phospholipidosis (A549-ACE2; 0.833333 µM, 48 h): -3.78%
- drug-induced phospholipidosis (A549-ACE2; 0.833333 µM, 72 h): -0.868%
- drug-induced phospholipidosis (A549-ACE2; 3.33333 µM, 24 h): -0.13%
- drug-induced phospholipidosis (A549-ACE2; 3.33333 µM, 48 h): 2.2%
- drug-induced phospholipidosis (A549-ACE2; 3.33333 µM, 72 h): 0.286%
- drug-induced phospholipidosis (A549-ACE2; 6.66667 µM, 24 h): 29.3%
- relative viability EC50 (Caco-2 [16]): 2.31 µM
- relative viability EC50 (HepG2 [17]): 3.19 µM
- relative viability EC50 (Vero E6 [6]): > 10 µM
- relative viability EC50 (Calu-3 [7]): > 10 µM
- morphology score ([8]; 0.3 µM): 0.17
- morphology score ([8]; 3 µM): 0.77
- morphology score ([8]; 10 µM): 0.43
- SARS-CoV-2 infection rate ([9]; 0.3 µM): 93%
- SARS-CoV-2 infection rate ([9]; 3 µM): 47%
- SARS-CoV-2 infection rate ([9]; 10 µM): 26%
- cell count ([10]; 0.3 µM): 102%
- cell count ([10]; 3 µM): 112%
- cell count ([10]; 10 µM): 66%
- cell viability (Caco-2 [11]; 1 nM): 105%
- cell viability (Caco-2 [11]; 10 nM): 99.9%
- cell viability (Caco-2 [11]; 100 nM): 93.3%
- cell viability (Caco-2 [11]; 1000 nM): 94.6%
- cell viability (Caco-2 [11]; 10000 nM): 47.4%
- cell viability (HepG2 [12]; 1 nM): 102%
- cell viability (HepG2 [12]; 10 nM): 109%
- cell viability (HepG2 [12]; 100 nM): 91.3%
- cell viability (HepG2 [12]; 1000 nM): 100%
- cell viability (HepG2 [12]; 10000 nM): 43.9%
- cell viability (Vero E6 [13]; 1 nM): 95.7%
- cell viability (Vero E6 [13]; 10 nM): 101%
- cell viability (Vero E6 [13]; 100 nM): 101%
- cell viability (Vero E6 [13]; 1000 nM): 99.8%
- cell viability (Vero E6 [13]; 10000 nM): 81.6%
- cell viability (U2OS [14]; 1 nM): 102%
- cell viability (U2OS [14]; 10 nM): 96.4%
- cell viability (U2OS [14]; 100 nM): 97.4%
- cell viability (U2OS [14]; 1000 nM): 93.2%
- cell viability (U2OS [14]; 10000 nM): 66%
- cell viability (Calu-3 [15]; 1 nM): 110%
- cell viability (Calu-3 [15]; 10 nM): 92%
- cell viability (Calu-3 [15]; 100 nM): 111%
- cell viability (Calu-3 [15]; 1000 nM): 96.6%
- cell viability (Calu-3 [15]; 10000 nM): 87%
